This passage reports IC50 results from patent US9533987B2, “Heterocyclic derivates” (KALVISTA PHARMACEUTICALS LIMITED, priority 2013, dated 2017).

Some results are limits rather than exact numbers.

A word on the IC50: it is the point on the concentration scale where inhibition reaches its midpoint.

In one assay the target is Human plasma kallikrein (Homo sapiens (Human), UniProt P03952). In words: Determination of the IC50 for plasma kallikrein (fluorogenic substrate H-DPro-Phe-Arg-AFC). The class given is biochemical. The following applies: 37° C., read-out: IC50 (human PKaI). On the procedure: Determination of the IC50 for Plasma Kallikrein
Human plasma kallikrein (Protogen) was incubated at 37° C. with the fluorogenic substrate H-DPro-Phe-Arg-AFC and various concentrations of the test compound. Residual enzyme activity (initial rate of reaction) was determined by measuring the change in […] at 410 nm and the IC50 value for the test compound was determined.

The target in another assay is Human KLK1 (Homo sapiens (Human), UniProt P06870). The experiment in a line: Determination of the IC50 for KLK1 (fluorogenic substrate H-DVal-Leu-Arg-AFC). The class given is biochemical. The following applies: 37° C. As to the method: Determination of the IC50 for KLK1
Human KLK1 (Callbiochem) was incubated at 37° C. with the fluorogenic substrate H-DVal-Leu-Arg-AFC and various concentrations of the test compound. Residual enzyme activity (initial rate of reaction) was determined by measuring the change in […] at 410 nm and the IC50 value for the test compound was determined.

Human plasma kallikrein, sequence (P03952 391-638): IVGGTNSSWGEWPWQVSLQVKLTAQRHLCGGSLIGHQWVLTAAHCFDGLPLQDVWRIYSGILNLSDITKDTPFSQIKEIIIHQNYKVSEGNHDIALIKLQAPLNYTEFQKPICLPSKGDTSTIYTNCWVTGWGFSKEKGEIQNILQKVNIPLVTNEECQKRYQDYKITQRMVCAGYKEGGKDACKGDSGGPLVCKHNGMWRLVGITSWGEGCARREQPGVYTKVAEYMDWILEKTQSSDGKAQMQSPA
Human plasma kallikrein, sequence (P03952 20-390 partner): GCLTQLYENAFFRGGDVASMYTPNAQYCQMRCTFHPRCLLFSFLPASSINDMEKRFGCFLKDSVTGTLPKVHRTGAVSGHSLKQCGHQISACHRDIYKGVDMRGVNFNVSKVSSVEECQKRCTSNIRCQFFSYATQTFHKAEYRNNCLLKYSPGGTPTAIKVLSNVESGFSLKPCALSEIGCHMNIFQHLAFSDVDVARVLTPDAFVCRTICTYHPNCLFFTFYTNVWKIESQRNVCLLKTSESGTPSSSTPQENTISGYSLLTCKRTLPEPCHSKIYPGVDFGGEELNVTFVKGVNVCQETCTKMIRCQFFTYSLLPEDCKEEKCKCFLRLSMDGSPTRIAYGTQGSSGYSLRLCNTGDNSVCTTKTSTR
Human KLK1, sequence (P06870 25-262): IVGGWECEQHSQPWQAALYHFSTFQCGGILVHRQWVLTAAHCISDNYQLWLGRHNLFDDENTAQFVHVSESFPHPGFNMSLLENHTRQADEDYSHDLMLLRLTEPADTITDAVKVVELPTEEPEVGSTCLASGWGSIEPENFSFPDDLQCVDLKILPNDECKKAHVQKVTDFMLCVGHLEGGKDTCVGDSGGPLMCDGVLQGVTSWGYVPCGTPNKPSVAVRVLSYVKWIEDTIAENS

`Cc1cnn(Cc2ccc(Cn3cc(C(=O)NCc4ccc5c(N)nccc5c4)c(CO)n3)cc2)c1` [Example 15, 3-Hydroxymethyl-1-[4-(4-methyl-pyrazol-1-ylmethyl)-benzyl]-1H-pyrazole-4-carboxylic acid (1-amino-isoquinolin-6-ylmethyl)-amide]: the IC50 at Human plasma kallikrein was 0.00117 µM; against Human KLK1, 6.64 µM.
For the compound `Nc1nccc2cc(CNC(=O)c3cnn(Cc4ccc(Cn5cccn5)cc4)c3N)ccc12` [Example 53, 5-Amino-1-(4-pyrazol-1-ylmethyl-benzyl)-1H-pyrazole-4-carboxylic acid (1-amino-isoquinolin-6-ylmethyl)-amide], the IC50 at Human plasma kallikrein was 0.0168 µM; against Human KLK1 it was greater than 10 µM.
As to `Cc1cnn(Cc2ccc(Cn3cnc(C(=O)NCc4ccc5c(N)nccc5c4)c3)cc2)c1` [Example 10, 1-[4-(4-Methyl-pyrazol-1-ylmethyl)-benzyl]-1H-imidazole-4-carboxylic acid (1-amino-isoquinolin-6-ylmethyl)-amide], the IC50 at Human plasma kallikrein was 0.0024 µM; against Human KLK1, greater than 10 µM.
Consider `CCN(CC)c1ncc(Cn2cc(C(=O)NCc3ccc4c(N)nccc4c3)c(C3CC3)n2)cc1F` [Example 95, 3-Cyclopropyl-1-(6-diethylamino-5-fluoro-pyridin-3-ylmethyl)-1H-pyrazole-4-carboxylic acid (1-amino-isoquinolin-6-ylmethyl)-amide], for which the IC50 on Human plasma kallikrein is 0.034 µM; at Human KLK1, 9.64 µM.
Take `COc1cc(Cn2cc(C(=O)NCc3ccc4c(N)nccc4c3)c(C3CC3)n2)cnc1N1CCCC1` [Example 25, 3-Cyclopropyl-1-(5-methoxy-6-pyrrolidin-1-yl-pyridin-3-ylmethyl)-1H-pyrazole-4-carboxylic acid (1-amino-isoquinolin-6-ylmethyl)-amide]: the IC50 is 0.00731 µM at Human plasma kallikrein and 2.21 µM against Human KLK1.
The corresponding values for `COc1cc(Cn2cc(C(=O)NCc3ccc4c(N)nccc4c3)c(C3CC3)n2)cc(N2CCCC2)n1` [Example 88, 3-Cyclopropyl-1-(2-methoxy-6-pyrrolidin-1-yl-pyridin-4-ylmethyl)-1H-pyrazole-4-carboxylic acid (1-amino-isoquinolin-6-ylmethyl)-amide] are 0.112 µM and 9.63 µM.
Taken in the same sequence, the figures for `Cc1cnn(Cc2ccc(Cn3cc(C(=O)NCc4ccc5c(N)nccc5c4)c(-c4ccsc4)n3)cc2)c1` [Example 42, 1-[4-(4-Methyl-pyrazol-1-ylmethyl)-benzyl]-3-thiophen-3-yl-1H-pyrazole-4-carboxylic acid (1-amino-isoquinolin-6-ylmethyl)-amide] were 0.00485 µM and 9.05 µM.
Turning to `CCn1c(C(=O)NCc2ccc3c(N)nccc3c2)cc(C)c1Cc1csc(-c2ccccc2)n1` [Example 29, 1-Ethyl-4-methyl-5-(2-phenyl-thiazol-4-ylmethyl)-1H-pyrrole-2-carboxylic acid (1-amino-isoquinolin-6-ylmethyl)-amide], the figures for the IC50 on Human plasma kallikrein and at Human KLK1 were 0.62 µM and greater than 10 µM, respectively.
As for `Nc1nccc2cc(CNC(=O)c3cn(Cc4ccc(OCC(F)(F)F)nc4)nc3C3CC3)ccc12` [Example 92, 3-Cyclopropyl-1-[6-(2,2,2-trifluoro-ethoxy)-pyridin-3-ylmethyl]-1H-pyrazole-4-carboxylic acid (1-amino-isoquinolin-6-ylmethyl)-amide], the values for the IC50 on Human plasma kallikrein and against Human KLK1 were 0.109 µM and greater than 10 µM, respectively.
As to `O=C(NCc1n[nH]c2ccc(Cl)cc12)c1cn(Cc2ccc(Cn3ccccc3=O)cc2)nc1C(F)(F)F` [Example 129, 1-[4-(2-Oxo-2H-pyridin-1-ylmethyl)-benzyl]-3-trifluoromethyl-1H-pyrazole-4-carboxylic acid (5-chloro-1H-indazol-3-ylmethyl)-amide], the IC50 was 0.00214 µM at Human plasma kallikrein and greater than 10 µM on Human KLK1.
Taken in the same sequence, the figures for `Cc1cc(C(=O)NCc2cnc3[nH]ccc3c2)c(C)n1Cc1csc(-c2ccccc2)n1` [Example 3, 2,5-Dimethyl-1-(2-phenyl-thiazol-4-ylmethyl)-1H-pyrrole-3-carboxylic acid (1H-pyrrolo[2,3-b]pyridin-5-ylmethyl)-amide] were 2.69 µM and greater than 10 µM.
Taken in the same sequence, the figures for `Cc1nc2[nH]ccc2c(C)c1CNC(=O)c1cn(Cc2ccc(Cn3ccccc3=O)cc2)nc1C(F)(F)F` [Example 8, 1-[4-(2-Oxo-2H-pyridin-1-ylmethyl)-benzyl]-3-trifluoromethyl-1H-pyrazole-4-carboxylic acid (4,6-dimethyl-1H-pyrrolo[2,3-b]pyridin-5-ylmethyl)-amide] were 0.00372 µM and greater than 10 µM.
The corresponding values for `Cc1cnn(Cc2ccc(Cn3cc(C(=O)NCc4ccc5c(N)nccc5c4)cn3)cc2)c1` [Example 31, 1-[4-(4-Methyl-pyrazol-1-ylmethyl)-benzyl]-1H-pyrazole-4-carboxylic acid (1-amino-isoquinolin-6-ylmethyl)-amide] are 0.002 µM and greater than 10 µM.
On to `Nc1nccc2cc(CNC(=O)c3cn(Cc4cnc(N5CCCC5)c(F)c4)nc3C(F)(F)F)ccc12` [Example 73, 1-(5-Fluoro-6-pyrrolidin-1-yl-pyridin-3-ylmethyl)-3-trifluoromethyl-1H-pyrazole-4-carboxylic acid (1-amino-isoquinolin-6-ylmethyl)-amide], for which the IC50 on Human plasma kallikrein came to 0.0226 µM; against Human KLK1, 1.57 µM.
Turning to `Nc1nn(Cc2ccc(N3CCCC3)nc2)cc1C(=O)NCc1ccc2c(N)nccc2c1` [Example 99, 3-Amino-1-(6-pyrrolidin-1-yl-pyridin-3-ylmethyl)-1H-pyrazole-4-carboxylic acid (1-amino-isoquinolin-6-ylmethyl)-amide], the IC50 on Human plasma kallikrein was found to be 0.00415 µM; against Human KLK1 it was 3.46 µM.
Taken in the same sequence, the figures for `Nc1nn(Cc2ccc(Cn3ccccc3=O)cc2)cc1C(=O)NCc1cccc2[nH]ncc12` [Example 113, 3-Amino-1-[4-(2-oxo-2H-pyridin-1-ylmethyl)-benzyl]-1H-pyrazole-4-carboxylic acid (1H-indazol-4-ylmethyl)-amide] were 0.0133 µM and 5.95 µM.
Taken in the same sequence, the figures for `CCOc1cc(Cn2cc(C(=O)NCc3ccc4c(N)nccc4c3)c(C(F)(F)F)n2)ccn1` [Example 80, 1-(2-Ethoxy-pyridin-4-ylmethyl)-3-trifluoromethyl-1H-pyrazole-4-carboxylic acid (1-amino-isoquinolin-6-ylmethyl)-amide] were 0.206 µM and 9.28 µM.
`Cc1cnn(Cc2ccc(Cn3cc(C(=O)NCc4ccc5c(N)nccc5c4)c(C(=O)O)n3)cc2)c1` [Example 17, 4-[(1-Amino-isoquinolin-6-ylmethyl)-carbamoyl]-1-[4-(4-methyl-pyrazol-1-ylmethyl)-benzyl]-1H-pyrazole-3-carboxylic acid]: the IC50 was 1.19 µM at Human plasma kallikrein and greater than 10 µM against Human KLK1.
The corresponding values for `Cc1cnn(Cc2ccc(Cn3cc(C(=O)NCc4ccc5c(N)nccc5c4)c(N4CCOCC4)n3)cc2)c1` [Example 21, 1-[4-(4-Methyl-pyrazol-1-ylmethyl)-benzyl]-3-morpholin-4-yl-1H-pyrazole-4-carboxylic acid (1-amino-isoquinolin-6-ylmethyl)-amide] are 0.00646 µM and greater than 10 µM.
As for `C[C@@H]1CCN(c2ccc(Cn3cc(C(=O)NCc4ccc5c(N)nccc5c4)c(C(F)(F)F)n3)cn2)C1` [Example 58, 1-[6-((R)-3-Methyl-pyrrolidin-1-yl)-pyridin-3-ylmethyl]-3-trifluoromethyl-1H-pyrazole-4-carboxylic acid (1-amino-isoquinolin-6-ylmethyl)-amide], the values for the IC50 on Human plasma kallikrein and on Human KLK1 were 0.0133 µM and 3.11 µM, respectively.
With `CCC(C)Oc1ccc(Cn2cc(C(=O)NCc3ccc4c(N)nccc4c3)c(C(F)(F)F)n2)cn1` (centres unmarked) [Example 72, 1-(6-sec-Butoxy-pyridin-3-ylmethyl)-3-trifluoromethyl-1H-pyrazole-4-carboxylic acid (1-amino-isoquinolin-6-ylmethyl)-amide], the 50% inhibitory concentration (IC50) was 0.118 µM at Human plasma kallikrein and greater than 10 µM on Human KLK1.
Regarding `CCCOc1ccc(Cn2cc(C(=O)NCc3ccc4c(N)nccc4c3)c(C(F)(F)F)n2)cn1` [Example 71, 1-(6-Propoxy-pyridin-3-ylmethyl)-3-trifluoromethyl-1H-pyrazole-4-carboxylic acid (1-amino-isoquinolin-6-ylmethyl)-amide], the IC50 is 0.0636 µM on Human plasma kallikrein and greater than 10 µM against Human KLK1.
Regarding `CCOc1ccc(Cn2cc(C(=O)NCc3ccc4c(N)nccc4c3)c(-c3ccccc3)n2)cn1` [Example 26, 1-(6-Ethoxy-pyridin-3-ylmethyl)-3-phenyl-1H-pyrazole-4-carboxylic acid (1-amino-isoquinolin-6-ylmethyl)-amide], the IC50 on Human plasma kallikrein worked out at 0.205 µM; on Human KLK1 it was 4.73 µM.
On to `Nc1nccc2cc(CNC(=O)c3cn(Cc4ccc(N5CCC(CO)C5)nc4)nc3C(F)(F)F)ccc12` (centres unmarked) [Example 69, 1-[6-(3-Hydroxymethyl-pyrrolidin-1-yl)-pyridin-3-ylmethyl]-3-trifluoromethyl-1H-pyrazole-4-carboxylic acid (1-amino-isoquinolin-6-ylmethyl)-amide], for which the IC50 at Human plasma kallikrein turned out to be 0.0323 µM; against Human KLK1, 4.74 µM.
For the compound `Nc1nccc2cc(CNC(=O)c3cn(Cc4ccc(N5CCCC5)nc4)nc3C3CC3)ccc12` [Example 90, 3-Cyclopropyl-1-(6-pyrrolidin-1-yl-pyridin-3-ylmethyl)-1H-pyrazole-4-carboxylic acid (1-amino-isoquinolin-6-ylmethyl)-amide], the IC50 at Human plasma kallikrein stood at 0.0116 µM; against Human KLK1, 4.7 µM.
